Results: patent US10934282B2, “Heteroaromatic modulators of the retinoid-related orphan receptor gamma” (LEO PHARMA A/S, priority 2016, dated 2021)
Where a name gives a salt, the structure may show the parent alone.

Key:
[1] = biological target: T1, human RORgt nuclear receptor (RORgT ligand binding domain protein) (Homo sapiens, UniProt P51449); experiment: ROR-gamma binding assay (Scintillation Proximity Assay, displacement of [3H]-25-hydroxycholesterol); settings: EC50, SPA, 15 nM [3H]-25-Hydroxycholesterol, RORgT LBD 12 nM
T1 construct: purchased Proteros Biostructures GmbH
T1 sequence (P51449 with tags, fused parts or gaps): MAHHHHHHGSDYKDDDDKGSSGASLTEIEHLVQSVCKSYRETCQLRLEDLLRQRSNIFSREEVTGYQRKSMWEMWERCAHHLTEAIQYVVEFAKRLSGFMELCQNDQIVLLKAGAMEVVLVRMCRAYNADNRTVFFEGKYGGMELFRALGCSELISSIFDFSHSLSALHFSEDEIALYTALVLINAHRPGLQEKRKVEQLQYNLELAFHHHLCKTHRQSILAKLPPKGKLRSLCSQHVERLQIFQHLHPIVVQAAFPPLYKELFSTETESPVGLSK
Summary of the method: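 SPA competition of compound against 15 nM [3H]-25-hydroxycholesterol for His/FLAG-tagged human RORγt LBD (12 nM) on His-tag PVT beads, in 50 mM HEPES pH 7.4, 150 mM NaCl, 5 mM MgCl2, 0.1% BSA, 0.5% DMSO. 30 min preincubation, then ≥4 h at room temperature in darkness; EC50 by four-parameter fit.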

[2] = test system: IL-17A in Human peripheral mononuclear cells; experiment: Human PBMC IL-17A assay; format: cell-based; settings: 72 h, EC50, antiCD3/antiCD28-coated beads, 3 days, alpha-LISA
Summary of the method: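 Cryopreserved human PBMC (130,000/well) stimulated with anti-CD3/anti-CD28-coated beads (1 cell per bead) in RPMI-1640 with 10% bovine calf serum, compounds at 0.1% DMSO, for 3 days. Supernatant IL-17A measured by AlphaLISA, viability by PrestoBlue; EC50 from 4-parameter non-linear regression.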

[3] = test system: IL-17A levels in human peripheral blood; experiment: tissue or blood; format: cell-based; settings: 72 h, read-out: Human Whole blood IL-17A (nM)

Structure (SMILES)	EC50 [1] [µM]	EC50 [2] [µM]	EC50 [3] [nM]
Cc1c(CN2CCN(C(=O)OC(C)C)[C@@H](C)C2)cc(Cl)cc1Nc1nnc(C2CCNC2=O)o1 (stereo partly drawn) [Example 48, isopropyl (2S)-4-[[5-chloro-2-methyl-3-[[5-(2-oxopyrrolidin-3-yl)-1,3,4-oxadiazol-2-yl]amino]phenyl]methyl]-2-methyl-piperazine-1-carboxylate]	0.0372	0.191	296
Cc1cc(CN2CCN(C(=O)OC(C)C)[C@@H](C)C2)c(C)c(Nc2nnc([C@H](C)N)o2)c1 [Example 49, isopropyl (2S)-4-[[3-[[5-[(1S)-1-aminoethyl]-1,3,4-oxadiazol-2-yl]amino]-2,5-dimethyl-phenyl]methyl]-2-methyl-piperazine-1-carboxylate]	0.0905	0.218	275
Cc1c(CN2CCN(C(=O)OC(C)C)[C@@H](C)C2)cc(C(F)F)cc1Nc1nnc([C@@H](C)O)o1 [Example 50, isopropyl (2S)-4-[[5-(difluoromethyl)-3-[[5-[(1R)-1-hydroxyethyl]-1,3,4-oxadiazol-2-yl]amino]-2-methyl-phenyl]methyl]-2-methyl-piperazine-1-carboxylate]	0.0316	0.0865	272
Cc1cc(CN2CCN(C(=O)OC(C)C)[C@@H](C)C2)c(C)c(Nc2nnc(C3CNC(=O)C3)o2)c1 (stereo partly drawn) [Example 51, isopropyl (2S)-4-[[2,5-dimethyl-3-[[5-(5-oxopyrrolidin-3-yl)-1,3,4-oxadiazol-2-yl]amino]phenyl]methyl]-2-methyl-piperazine-1-carboxylate]	0.0644	0.216	266
Cc1cc(CN2CCN(C(=O)OC(C)C)[C@@H](C)C2)c(C)c(Nc2nnc([C@@H]3CNC(=O)O3)o2)c1 [Example 52, isopropyl (2S)-4-[[2,5-dimethyl-3-[[5-[(5S)-2-oxooxazolidin-5-yl]-1,3,4-oxadiazol-2-yl]amino]phenyl]methyl]-2-methyl-piperazine-1-carboxylate]	0.0421	0.134	256
Cc1c(CN2CCN(C(=O)OC(C)C)[C@@H](C)C2)cc(Cl)cc1Nc1nnc([C@@H]2CC(=O)N2)o1 [Example 53, isopropyl (2S)-4-[[5-chloro-2-methyl-3-[[5-[(2S)-4-oxoazetidin-2-yl]-1,3,4-oxadiazol-2-yl]amino]phenyl]methyl]-2-methyl-piperazine-1-carboxylate]	0.0682	0.0939	247
Cc1cc(CN2CCN(C(=O)OC(C)C)[C@@H](C)C2)c(C)c(Nc2nnc(-c3nonc3C)o2)c1 [Example 54, isopropyl (2S)-4-[[2,5-dimethyl-3-[[5-(4-methyl-1,2,5-oxadiazol-3-yl)-1,3,4-oxadiazol-2-yl]amino]phenyl]methyl]-2-methyl-piperazine-1-carboxylate]	0.0163	0.0281	176
Cc1cc(CN2CCN(C(=O)OC(C)C)[C@@H](C)C2)c(C)c(Nc2nnc([C@@H]3COCCN3)o2)c1 [Example 55, isopropyl (2S)-4-[[2,5-dimethyl-3-[[5-[(3S)-morpholin-3-yl]-1,3,4-oxadiazol-2-yl]amino]phenyl]methyl]-2-methyl-piperazine-1-carboxylate dihydrochloride]	0.039	0.0623	36.8
Cc1cc(CN2CCN(C(=O)OC(C)C)[C@@H](C)C2)c(C)c(Nc2nnc([C@@H](C)O)o2)c1 [Example 56, isopropyl (2S)-4-[[3-[[5-[(1R)-1-hydroxyethyl]-1,3,4-oxadiazol-2-yl]amino]-2,5-dimethyl-phenyl]methyl]-2-methyl-piperazine-1-carboxylate]	0.0365	0.0519	92.2
Cc1cc(CN2CCN(C(=O)OC(C)C)[C@@H](C)C2)c(C)c(Nc2nnc(C[C@@H](O)C(F)(F)F)o2)c1 [Example 57, isopropyl (2S)-4-[[2,5-dimethyl-3-[[5-[(2R)-3,3,3-trifluoro-2-hydroxy-propyl]-1,3,4-oxadiazol-2-yl]amino]phenyl]methyl]-2-methyl-piperazine-1-carboxylate]	0.0238	0.0465	96.7
Cc1cc(CN2CCN(C(=O)OC(C)C)[C@@H](C)C2)c(C)c(Nc2nnc(C3CCNC(=O)C3)o2)c1 (stereo partly drawn) [Example 58, isopropyl (2S)-4-[[2,5-dimethyl-3-[[5-(2-oxo-4-piperidyl)-1,3,4-oxadiazol-2-yl]amino]phenyl]methyl]-2-methyl-piperazine-1-carboxylate]	0.0544	0.373	215
Cc1cc(CN2CCN(C(=O)OC(C)C)[C@@H](C)C2)c(C)c(Nc2nnc(-c3ccnn3C)o2)c1 [Example 59, isopropyl (2S)-4-[[2,5-dimethyl-3-[[5-(2-methylpyrazol-3-yl)-1,3,4-oxadiazol-2-yl]amino]phenyl]methyl]-2-methyl-piperazine-1-carboxylate]	0.0257	0.123	211
Cc1cc(CN2CCN(C(=O)OC(C)C)[C@@H](C)C2)c(C)c(Nc2nnc(C[C@H](C)O)o2)c1 [Example 60, isopropyl (2S)-4-[[3-[[5-[(2S)-2-hydroxypropyl]-1,3,4-oxadiazol-2-yl]amino]-2,5-dimethyl-phenyl]methyl]-2-methyl-piperazine-1-carboxylate]	0.0383	0.106	195
Cc1cc(CN2CCN(C(=O)OC(C)C)[C@@H](C)C2)c(C)c(Nc2nnc(C[C@@H](C)O)o2)c1 [Example 61, isopropyl (2S)-4-[[3-[[5-[(2R)-2-hydroxypropyl]-1,3,4-oxadiazol-2-yl]amino]-2,5-dimethyl-phenyl]methyl]-2-methyl-piperazine-1-carboxylate]	0.0423	0.106	101
CC[C@H](O)c1nnc(Nc2cc(C)cc(CN3CCN(C(=O)OC(C)C)[C@@H](C)C3)c2C)o1 [Example 62, isopropyl (2S)-4-[[3-[[5-[(1S)-1-hydroxypropyl]-1,3,4-oxadiazol-2-yl]amino]-2,5-dimethyl-phenyl]methyl]-2-methyl-piperazine-1-carboxylate]	0.0207	0.0676	103
Cc1c(CN2CCN(C(=O)OC(C)C)[C@@H](C)C2)cc(Cl)cc1Nc1nnc([C@H](C)O)o1 [Example 63, isopropyl (2S)-4-[[5-chloro-3-[[5-[(1S)-1-hydroxyethyl]-1,3,4-oxadiazol-2-yl]amino]-2-methyl-phenyl]methyl]-2-methyl-piperazine-1-carboxylate]	0.0348	0.0621	187
Cc1c(CN2CCN(C(=O)OC(C)C)[C@@H](C)C2)cc(Cl)cc1Nc1nnc([C@H]2C[C@H](O)C2)o1 [Example 64, isopropyl (2S)-4-[[5-chloro-3-[[5-(3-hydroxycyclobutyl)-1,3,4-oxadiazol-2-yl]amino]-2-methyl-phenyl]methyl]-2-methyl-piperazine-1-carboxylate]	0.0506	0.131	191
Cc1cc(CN2CCN(C(=O)OC(C)C)[C@@H](C)C2)c(C)c(Nc2nnc([C@@H]3CCCN3S(C)(=O)=O)o2)c1 [Example 65, isopropyl (2S)-4-[[2,5-dimethyl-3-[[5-[(2S)-1-methylsulfonylpyrrolidin-2-yl]-1,3,4-oxadiazol-2-yl]amino]phenyl]methyl]-2-methyl-piperazine-1-carboxylate]	0.0479	0.0587	107
Cc1cc(CN2CCN(C(=O)OC(C)C)[C@@H](C)C2)c(C)c(Nc2nnc([C@H](C)O)o2)c1 [Example 66, isopropyl (2S)-4-[[3-[[5-[(1S)-1-hydroxyethyl]-1,3,4-oxadiazol-2-yl]amino]-2,5-dimethyl-phenyl]methyl]-2-methyl-piperazine-1-carboxylate]	0.0548	0.0776	140
Cc1c(CN2CCN(C(=O)OC(C)C)[C@@H](C)C2)cc(Cl)cc1Nc1nnc(C2CNC(=O)C2)o1 (stereo partly drawn) [Example 67, isopropyl (2S)-4-[[5-chloro-2-methyl-3-[[5-(5-oxopyrrolidin-3-yl)-1,3,4-oxadiazol-2-yl]amino]phenyl]methyl]-2-methyl-piperazine-1-carboxylate]	0.0622	0.0472	597
Cc1cc(CN2CCN(C(=O)OC(C)C)[C@@H](C)C2)c(C)c(Nc2nnc([C@@H](C)N)o2)c1 [Example 68, isopropyl (2S)-4-[[3-[[5-[(1R)-1-aminoethyl]-1,3,4-oxadiazol-2-yl]amino]-2,5-dimethyl-phenyl]methyl]-2-methyl-piperazine-1-carboxylate]	0.103	0.182	552
